The nature of this assay: Agonistic activity of the compound against C-C chemokine receptor type 3 by displacing Eotaxin radioligand,using Esonophil chemotaxis assay.

Each structure is given as a SMILES string. Where “and” joins values, the source holds several entries; their conditions need not be identical. Equal values may be shown once.

Among the data in BindingDB's records for doi:10.1016/s0960-894x(01)00248-7 (Smithkline Beecham Pharmaceuticals, 2001) are IC50 values, retold here.

The term IC50 denotes the concentration that inhibits the measured activity by half. Low values mean greater potency, high ones weaker potency. Turning to `COC(=O)[C@H](Cc1ccc([N+](=O)[O-])cc1)NC(=O)c1cccc2ccccc12` [(S)-2-[(Naphthalene-1-carbonyl)-amino]-3-(4-nitro-phenyl)-propionic acid methyl ester], the IC50 is 32 nM and 25 nM.
